# From patent publication US20080003438A1, “Heterocyclic siloxanes for use in biocidal coatings and materials” (Auburn University, priority 2002, published 2008)
# Tests used:
# [1] = test system: S. aureus bacteria (ATCC 6538); experiment: Biocidal efficacy of chlorinated silane compound in water solution; format: cell-based; settings: 100.8 mg/L solution, 11.02 mg/L total chlorine, chlorine-demand-free water pH 7, all contact times 5, 10, 30, 60 min, ambient temperature
# Protocol: A 100.8 mg/L solution of the chlorinated silane compound, prepared as described above, containing 11.02 mg/L total chlorine content in chlorine-demand-free water at pH 7 was challenged with S. aureus bacteria (ATCC 6538) for contact times of 5, 10, 30, and 60 min at ambient temperature. Following the contact with the bacteria, further disinfectant action was quenched by adding 0.02 N sodium thiosulfate. Serial dilutions were then plated onto trypticase soy agar, and colony counts were made after 48 hours of incubation at 37° C. No growth was detected on the plates indicating a complete inactivation (>4.9 logs) at all of the contact times. Thus the chlorinated silane compound is biocidal under the conditions tested. Neither lower contact times, nor lower concentrations, were evaluated.
# [2] = Chlorine loading of coated, chlorinated surfaces by iodometric/thiosulfate titration; format: physicochemical; settings: for chlorine loading on coated cotton swatches: chlorinated with 5% CLOROX at ambient temperature for 45 minutes; for chlorine content of charged textile: oven-cured
# Protocol: Swatches of Style 400 Bleached 100% Cotton Print Cloth (Testfabrics, Inc.) were treated with 3-triethoxysilylpropyl-5,5-dimethylhydantoin, prepared as described in Example 1, in the following manner. A treatment bath was prepared containing 5.0 g of 3-triethoxysilylpropyl-5,5-dimethylhydantoin, 3.0 g of potassium thiocyanate, 50 mL of ethanol, and 50 mL of water. After 1 hour of equilibration of the bath mixture, the cotton swatches were soaked in the bath for 10 min. After partially drying in air at ambient temperature, the swatches were cured for 1 hour at 95° C. The swatches were then soaked in a 0.5% liquid detergent solution for 15 min, rinsed with tap water, and allowed to dry in air at ambient temperature. […] The swatches were stored in a vacuum desiccator until use.
# The siloxane polymer described above was coated onto 100% cotton fabric. This was accomplished by soaking swatches of the material for about 2 minutes at ambient temperature in a bath containing 5 g of the polysiloxane, 70 mL of ethanol, and 40 mL of water. The swatches were cured at 130° C. in air for 20 minutes, then soaked in 1.5% liquid detergent for 15 minutes at ambient temperature, and then rinsed thoroughly with water. […] An iodometric/thiosulfate titration indicated a chlorine loading on the cotton material of about 0.42%.
# Finally, a wash test was performed on swatches of cotton containing the monomer 3-triethoxysilylpropyl-5,5-dimethylhydantoin coating and the polysiloxane coating, each chlorinated and unchlorinated, for comparison purposes. Two treatment baths were prepared, one containing an 8% solution of 3-triethoxysilylpropyl-5,5-dimethylhydantoin in a 50% solution of ethanol in water, the other containing an 8% solution of siloxane polymer prepared as described above in a 66.7% solution of ethanol in water. Identical cotton swatches were soaked in the two baths for 2.5 minutes at ambient temperature, cured in air at 130° C. for 20 minutes, soaked in 1.5% liquid detergent at ambient temperature for 15 minutes, rinsed thoroughly with water, and dried in air at 50° C. for 30 minutes. Then one-half of the swatches of each type were chlorinated by soaking them in 5% CLOROX at ambient temperature for 45 minutes. These chlorinated samples were rinsed thoroughly with water and dried in air at 50° C. for 30 minutes to remove all occluded free chlorine. Iodometric/thiosulfate titrations were performed on representative samples to determine initial chlorine loadings. The average chlorine loading for the silane monomer-coated samples was 0.61%; for the siloxane polymer-coated samples, the average chlorine loading was 0.40%. Then all types of coated swatches were subjected to laundry washing cycles using AATCC Test Method 61 (Test 2A Procedure). Samples were evaluated after 5, 10, and 50 washing cycles for retention of the coatings. Those samples not chlorinated before washing were chlorinated by the procedure described above in order to assess how much chlorine could be loaded after variable numbers of washing cycles. Those chlorinated before washing were divided into two groups with half being assessed for chlorine loading without rechlorination, the other half being rechlorinated and then assessed for chlorine loading. Three observations are clearly evident from the data in Table 3. First, both the silane and the siloxane coatings are partially lost upon successive washings. Second, prechlorination reduces the rate of loss, probably due to increasing the hydrophobicity of the surface, thus reducing the rate of hydrolysis loss of the siloxane coatings. Third, the siloxane coating, which is not chlorinated to as high a level as the silane one upon initial chlorination, is lost at a slower rate than is the silane coating. For all of the coatings, at least partial biocidal efficacy would be regenerated upon rechlorination after 50 washing cycles. […]
# [3] = test system: S. aureus (ATCC 6538); experiment: Challenge of treated cotton swatches, modified AATCC Method 100; format: cell-based; settings: treated cotton swatches, at 30 minutes
# Protocol: (§1) Treated cotton swatches were challenged with S. aureus (ATCC 6538) and Escherichia coli (ATCC 2666) at a concentration of between 10^8 and 10^9 CFU/mL in pH 7 phosphate buffer solution using a modified version of AATCC Method 100. The swatches were quenched with 0.02 N sodium thiosulfate solution at contact times of 10, 30, 60, and 120 min. Serial dilutions of the solutions contacting the swatches were plated on nutrient agar, incubated for 48 hours at 37° C., and plate counts were made to determine the presence of viable bacteria. […] The control sample (cotton soaked in 10% bleach, rinsed, and dried) gave only a 0.4 log reduction at 30 minutes. […] The control sample (cotton soaked in 10% bleach, rinsed, and dried) gave a 0 log reduction at 120 minutes.
# [4] = test system: Escherichia coli (ATCC 2666); experiment: as above; format: cell-based; settings: contact time interval 60-120 minutes
# Protocol: as §1
# [5] = test system: Staphylococcus aureus; experiment: Antimicrobial activity of cotton textiles coated with acyclic silane; format: cell-based
# Protocol: Cotton textiles were coated with 3-aminopropyltriethoxysilane by exposure to aqueous solutions of 5% of this compound, followed by curing the woven fabric at 100° C. for 60 minutes in air, or by use of a household dryer on high setting for 30 minutes. Swatches of the treated fabric were charged with chlorine, and then challenged with suspensions of Staphylococcus aureus; enumeration of recovery was accomplished using the methods described in Example 11. Chlorine contents of charged oven-cured textiles ranged up to 5000 ppm (5 mg per g of material) immediately after drying, but diminished to 2300 ppm in approximately 14 days at 20° C. Chlorine concentrations in dryer-prepared swatches were never higher than 2500 ppm, even when fresh. Reductions of viable organisms in freshly chlorinated oven-dried swatches were in excess of 4 logs, after as little as 15 minutes of contact. Longer contact times (30 minutes) were required to reach this level of efficacy in dryer-cured textiles.
smiles,measurement,setting,value
"CO[Si](CCCN1C(=O)N(Cl)C(C)(C)C1=O)(OC)OC [chlorinated silane compound, 1-chloro-3-trimethoxysilylpropyl-5,5-dimethylhydantoin]",complete inactivation of S. aureus,[1],> 4.9 logs
"CCO[Si](C)(CCCN1C(=O)NC(C)(C)C1=O)OCC [3-diethoxymethylsilylpropyl-5,5-dimethylhydantoin]",chlorine loading on coated cotton swatches,[2]; cotton,0.733%
"CCCCCCCCCCCCCCCCCC[N+](C)(C)CCC[Si](OC)(OC)OC.[Cl-] [quaternary ammonium salt, dimethyloctadecyltrimethoxysilylpropylammonium chloride, reference compound]",log reduction of S. aureus,[3],1.8 log
same,log reduction of E. coli,[4],2.5 logs
"CCO[Si](CCCN1C(=O)C(C)(C)NC1(C)C)(OCC)OCC [3-triethoxysilylpropyl-2,2,5,5-tetramethylimidazolidin-4-one]",chlorine loading on coated cotton swatches,[2]; cotton,0.114%
"CCO[Si](CCCNCCN1C(=O)NC(C)(C)C1=O)(OCC)OCC.Cl [3-[2′-(3′-triethoxysilylpropyl)aminoethyl]-5,5-dimethylhydantoin hydrochloride]",chlorine loading,"[2]; cotton swatches, 5% CLOROX 5 minutes",0.44%
same,chlorine loading,"[2]; sand (Ottawa Sand Standard, 20-30 mesh), 50% CLOROX 15 minutes",0.11%
CCO[Si](CCCN)(OCC)OCC [3-aminopropyltriethoxysilane],chlorine concentration of charged textile,"[2]; cotton, dryer-prepared swatches, even when fresh",≤ 2500 ppm
same,chlorine content of charged textile,"[2]; cotton, after approximately 14 days at 20° C.",2300 ppm
same,chlorine content of charged textile,"[2]; cotton, immediately after drying",up to 5000 ppm
same,contact time required to reach in excess of 4 logs reduction,[5]; dryer-cured cotton textiles,30 minutes
same,reduction of viable organisms,"[5]; freshly chlorinated oven-dried cotton swatches, 15 minutes of contact",> 4 logs
